Measurements published in patent US20230312576A1, “4-(7H-PYRROLO[2,3-D]PYRIMIDIN-4-YL)-3,6-DIHYDROPYRIDINE-1-(2H)-CARBOXAMIDE DERIVATIVES AS LIMK AND/OR ROCK KINASES INHIBITORS FOR USE IN THE TREATMENT OF CANCER” (CENTRE NATIONAL DE LA RECHERCHE SCIENTIFIQUE, priority 2020, published 2023).
Like-named read-outs stand apart in the source and are kept apart here.

Experiments:
[1] = molecular target: ROCK1 (Homo sapiens (Human), UniProt Q13464); test: Z'Lyte assay, ROCK1 inhibition at a single concentration; format: biochemical
ROCK1, sequence (Q13464 whole entry): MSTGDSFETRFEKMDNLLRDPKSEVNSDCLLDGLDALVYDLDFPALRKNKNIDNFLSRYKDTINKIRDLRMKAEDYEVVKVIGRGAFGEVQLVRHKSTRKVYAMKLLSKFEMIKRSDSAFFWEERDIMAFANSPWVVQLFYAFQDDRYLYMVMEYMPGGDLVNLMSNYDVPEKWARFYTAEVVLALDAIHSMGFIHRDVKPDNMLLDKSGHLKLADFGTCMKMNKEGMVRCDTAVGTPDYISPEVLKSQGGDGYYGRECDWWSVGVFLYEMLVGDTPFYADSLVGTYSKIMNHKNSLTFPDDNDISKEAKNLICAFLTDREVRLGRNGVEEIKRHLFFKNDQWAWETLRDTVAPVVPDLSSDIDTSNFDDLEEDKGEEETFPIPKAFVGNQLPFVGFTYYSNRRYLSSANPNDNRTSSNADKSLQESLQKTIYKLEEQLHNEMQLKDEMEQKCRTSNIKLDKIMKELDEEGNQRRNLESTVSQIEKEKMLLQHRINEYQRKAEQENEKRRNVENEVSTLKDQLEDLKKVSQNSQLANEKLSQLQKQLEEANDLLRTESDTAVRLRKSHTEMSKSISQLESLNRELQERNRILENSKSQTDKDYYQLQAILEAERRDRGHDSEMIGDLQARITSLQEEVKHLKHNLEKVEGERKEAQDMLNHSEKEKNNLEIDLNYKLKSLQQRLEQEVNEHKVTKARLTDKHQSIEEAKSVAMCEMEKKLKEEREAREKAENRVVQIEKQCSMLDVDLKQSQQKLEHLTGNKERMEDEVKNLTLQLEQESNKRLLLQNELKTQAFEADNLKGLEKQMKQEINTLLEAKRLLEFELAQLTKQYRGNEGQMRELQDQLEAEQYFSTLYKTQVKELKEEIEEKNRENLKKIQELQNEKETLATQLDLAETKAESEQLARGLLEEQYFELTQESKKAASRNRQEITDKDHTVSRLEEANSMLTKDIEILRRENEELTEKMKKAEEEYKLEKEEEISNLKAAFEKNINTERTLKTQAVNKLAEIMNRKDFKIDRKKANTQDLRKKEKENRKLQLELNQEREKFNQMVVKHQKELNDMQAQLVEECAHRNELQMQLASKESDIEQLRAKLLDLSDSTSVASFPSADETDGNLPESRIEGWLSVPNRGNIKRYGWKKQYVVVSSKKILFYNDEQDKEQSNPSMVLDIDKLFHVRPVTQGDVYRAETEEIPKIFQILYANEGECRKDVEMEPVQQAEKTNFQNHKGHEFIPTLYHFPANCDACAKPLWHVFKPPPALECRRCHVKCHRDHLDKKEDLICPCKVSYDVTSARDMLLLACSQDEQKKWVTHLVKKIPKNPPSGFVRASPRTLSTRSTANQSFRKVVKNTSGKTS

[2] = test system: cofilin phosphorylation, HeLa cells; test: Cofilin phosphorylation by Western Blot (anti-phospho-Ser3-cofilin) in HeLa cells; format: cell-based; conditions: for inhibition at 25 µM: Homo sapiens
[3] = molecular target: ROCK2 (Homo sapiens (Human), UniProt O75116); test: Z'Lyte assay, ROCK2 inhibition at a single concentration; format: biochemical
ROCK2, sequence (O75116 whole entry): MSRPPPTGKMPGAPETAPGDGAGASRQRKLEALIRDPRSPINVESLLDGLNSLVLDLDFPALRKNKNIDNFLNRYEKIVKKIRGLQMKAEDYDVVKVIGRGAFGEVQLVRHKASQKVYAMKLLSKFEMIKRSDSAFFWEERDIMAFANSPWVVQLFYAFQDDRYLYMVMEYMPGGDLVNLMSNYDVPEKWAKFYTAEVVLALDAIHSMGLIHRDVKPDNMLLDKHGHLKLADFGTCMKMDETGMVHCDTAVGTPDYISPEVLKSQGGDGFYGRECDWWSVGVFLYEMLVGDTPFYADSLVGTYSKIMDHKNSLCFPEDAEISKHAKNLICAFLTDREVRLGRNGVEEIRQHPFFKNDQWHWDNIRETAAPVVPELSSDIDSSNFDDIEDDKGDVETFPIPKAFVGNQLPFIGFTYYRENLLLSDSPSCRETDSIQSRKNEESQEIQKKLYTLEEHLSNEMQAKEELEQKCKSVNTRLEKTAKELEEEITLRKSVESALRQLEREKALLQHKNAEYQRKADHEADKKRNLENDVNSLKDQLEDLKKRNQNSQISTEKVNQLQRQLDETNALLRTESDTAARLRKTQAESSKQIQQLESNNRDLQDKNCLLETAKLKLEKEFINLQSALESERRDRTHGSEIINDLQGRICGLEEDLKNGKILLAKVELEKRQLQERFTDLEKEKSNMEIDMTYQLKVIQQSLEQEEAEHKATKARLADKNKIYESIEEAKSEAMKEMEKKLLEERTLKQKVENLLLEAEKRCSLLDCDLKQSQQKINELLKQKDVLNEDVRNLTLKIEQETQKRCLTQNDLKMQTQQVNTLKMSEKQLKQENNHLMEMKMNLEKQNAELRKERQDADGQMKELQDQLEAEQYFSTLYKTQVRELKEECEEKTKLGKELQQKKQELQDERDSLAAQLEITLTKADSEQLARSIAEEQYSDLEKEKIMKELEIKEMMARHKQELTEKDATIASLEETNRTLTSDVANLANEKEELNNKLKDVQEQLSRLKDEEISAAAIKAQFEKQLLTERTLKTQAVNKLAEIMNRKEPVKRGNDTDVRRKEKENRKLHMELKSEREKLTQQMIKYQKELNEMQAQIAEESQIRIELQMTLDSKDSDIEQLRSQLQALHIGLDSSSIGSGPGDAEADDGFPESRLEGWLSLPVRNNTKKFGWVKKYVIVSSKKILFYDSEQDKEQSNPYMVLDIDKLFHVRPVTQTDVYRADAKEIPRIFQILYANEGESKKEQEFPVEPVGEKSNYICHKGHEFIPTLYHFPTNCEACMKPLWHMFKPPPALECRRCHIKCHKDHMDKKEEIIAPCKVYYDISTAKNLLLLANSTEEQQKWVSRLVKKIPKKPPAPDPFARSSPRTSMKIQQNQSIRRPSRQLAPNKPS

[4] = molecular target: LIMK1 (Homo sapiens (Human), UniProt P53667); test: Lanthascreen Eu binding assay (TR-FRET), inhibition of LIMK1
LIMK1, sequence (P53667 whole entry): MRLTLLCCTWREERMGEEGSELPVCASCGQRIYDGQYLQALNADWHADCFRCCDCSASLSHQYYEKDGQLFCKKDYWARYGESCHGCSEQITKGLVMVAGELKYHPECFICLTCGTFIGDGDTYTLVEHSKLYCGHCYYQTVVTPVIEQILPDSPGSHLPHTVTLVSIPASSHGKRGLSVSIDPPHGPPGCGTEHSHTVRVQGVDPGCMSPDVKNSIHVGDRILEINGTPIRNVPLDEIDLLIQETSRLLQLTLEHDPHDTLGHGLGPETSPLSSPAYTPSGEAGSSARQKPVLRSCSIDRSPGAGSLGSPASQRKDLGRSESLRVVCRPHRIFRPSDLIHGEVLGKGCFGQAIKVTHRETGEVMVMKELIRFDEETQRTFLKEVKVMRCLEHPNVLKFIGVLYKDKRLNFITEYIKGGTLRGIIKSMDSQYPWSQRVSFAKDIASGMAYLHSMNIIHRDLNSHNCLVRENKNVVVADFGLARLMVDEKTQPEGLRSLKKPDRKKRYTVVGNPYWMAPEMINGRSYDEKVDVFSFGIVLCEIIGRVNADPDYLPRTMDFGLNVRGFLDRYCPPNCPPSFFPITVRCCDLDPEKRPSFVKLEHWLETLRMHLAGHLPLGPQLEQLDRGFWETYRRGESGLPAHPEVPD

[5] = molecular target: LIMK2 (Homo sapiens (Human), UniProt P53671); test: Lanthascreen Eu binding assay (TR-FRET), inhibition of LIMK2
LIMK2, sequence (P53671 whole entry): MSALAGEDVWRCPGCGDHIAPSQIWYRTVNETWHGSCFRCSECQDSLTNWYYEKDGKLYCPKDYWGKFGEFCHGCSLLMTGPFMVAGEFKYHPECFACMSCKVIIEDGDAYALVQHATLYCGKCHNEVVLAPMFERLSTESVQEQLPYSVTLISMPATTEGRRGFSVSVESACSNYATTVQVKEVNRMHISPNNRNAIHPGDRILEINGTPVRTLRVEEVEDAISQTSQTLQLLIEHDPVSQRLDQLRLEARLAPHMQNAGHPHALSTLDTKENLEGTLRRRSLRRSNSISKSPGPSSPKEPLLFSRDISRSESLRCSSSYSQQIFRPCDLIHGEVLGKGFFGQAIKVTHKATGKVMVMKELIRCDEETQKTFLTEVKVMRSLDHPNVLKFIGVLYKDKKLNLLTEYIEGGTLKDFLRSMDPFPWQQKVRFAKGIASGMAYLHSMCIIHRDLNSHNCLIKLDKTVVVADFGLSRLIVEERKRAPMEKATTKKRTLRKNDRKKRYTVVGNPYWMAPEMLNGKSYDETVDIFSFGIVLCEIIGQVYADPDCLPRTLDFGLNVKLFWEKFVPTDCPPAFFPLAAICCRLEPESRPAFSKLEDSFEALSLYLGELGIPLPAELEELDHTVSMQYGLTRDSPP

[6] = Table 2, normalized to the control condition DMSO
[7] = read-out: % inhibition (ROCK1) 1 uM, 1 uM
[8] = HeLa, 2 h, read-out: % inhibition of cofilin phosphorylation in HeLa cells (treatment 2 h, at 25 μM), Table 2, normalized to the control condition DMSO
[9] = read-out: % inhibition (ROCK2) 1 uM, 1 uM
[10] = read-out: % inhibition Cofilin phosphorylation HeLa cells treated 2 h with 25 uM of inhibitor, HeLa cells, 2 h, 25 uM
[11] = HeLa, 2 h, read-out: % inhibition Cofilin phosphorylation HeLa cells treated 2 h with 25 uM of inhibitor
[12] = HeLa, 2 h, read-out: % inhibition of cofilin phosphorylation in HeLa cells (treatment 2 h, at 25 μM)
[13] = read-out: % inhibition (ROCK1) 1 uM
[14] = read-out: % inhibition (ROCK2) 1 uM

| Structure (SMILES) | Ki ([4]; Lanthascreen Eu binding assay) [nM] | Ki ([5]; Lanthascreen Eu binding assay) [nM] | inhibition at 1 µM [1, 7] [%] | inhibition at 25 µM [2, 8] [%] | inhibition at 1 µM [3, 9] [%] | inhibition at 25 µM [2, 10] [%] | other results |
| --- | --- | --- | --- | --- | --- | --- | --- |
| CNC(=O)c1cccc(NC(=O)N2CC=C(c3ncnc4[nH]c5c(c34)CCC5)CC2)c1 [Compound 133, N-[3-(Methylcarbamoyl)phenyl]-4-(7,9,11-triazatricyclo [6.4.0.02,6]dodeca-1(8),2(6),9,11-tetraen-12-yl)-3,6-dihydropyridine-1(2)-carboxamide] | 49.1 | 40.5 | – | – | – | – | % inhibition (ROCK1) 1 uM ([1]; 1 uM): −19%; % inhibition Cofilin phosphorylation HeLa cells treated 2 h with 25 uM of inhibitor ([2]; HeLa cells, 2 h, 25 uM): 78.8%; % inhibition of cofilin phosphorylation in HeLa cells (treatment 2 h, at 25 μM) [2, 6]: 78.8%; % inhibition (ROCK2) 1 uM ([3]; 1 uM): 1% |
| Cc1c[nH]c2ncnc(C3=CCN(C(=O)Nc4cccc(OCC5CCC(F)(F)CC5)c4)CC3)c12 [Compound 191, N-(3-((4,4-difluorocyclohexyl)methoxy)phenyl)-4-(5-methyl-7H-pyrrolo[2,3-d]pyrimidin-4-yl)-3,6-dihydropyridine-1(2H)-carboxamide] | 85.5 | 217 | 72 | 87 | 57 | – | – |
| O=C(Nc1cccc(Oc2ccccc2)c1)N1CC=C(c2ncnc3[nH]cc(C4CC4)c23)CC1 [Compound 79, 4-(5-Cyclopropyl-7H-pyrrolo[2,3-d]pyrimidin-4-yl)-N-(3-phenoxyphenyl)-3,6-dihydropyridine-1(2H)-carboxamide] | 42.5 | 10.9 | 6 | 83.1 | 8 | 83.1 | – |
| CN(C)Cc1cccc(NC(=O)N2CC=C(c3ncnc4[nH]c5c(c34)CCC5)CC2)c1 [Compound 132, N-[3-[(dimethylamino)methyl]phenyl]-4-(7,9,11-triaza-tricyclo[6.4.0.02,6]dodeca-1(8),2(6),9,11-tetraen-12-yl)-3,6-dihydropyridine-1(2H)-carboxamide] | 389 | 415 | -6 | 76.2 | 2 | 76.2 | – |
| N#Cc1cccc(NC(=O)N2CC=C(c3ncnc4[nH]c5c(c34)CCC5)CC2)c1 [Compound 127, N-(3-Cyanophenyl)-4-(7,9,11-triazatricyclo[6.4.0.02,6]dodeca-1(8),2(6),9,11-tetraen-12-yl)-3,6-dihydropyridine-1(2H)-carboxamide] | 8.19 | 39.3 | 3 | – | 20 | 68.5 | – |
| Cc1c[nH]c2ncnc(C3=CCN(C(=O)Nc4ccc5ccccc5c4)CC3)c12 [Compound 13, 4-(5-Methyl-7H-pyrrolo[2,3-d]pyrimidin-4-yl)-N-(naphthalen-2-yl)-3,6-dihydropyridine-1(2H)-carboxamide] | – | – | 73 | – | 56 | – | inhibition at 25 µM [2, 11]: 84.2%; inhibition at 25 µM [2, 12]: 84.2% |
| COc1ccc(-c2cccc(NC(=O)N3CC=C(c4ncnc5[nH]c6c(c45)CCC6)CC3)c2)cc1 [Compound 136, N-[3-(4-Methoxyphenyl)phenyl]-4-(7,9,11-triaza-tricyclo[6.4.0.02,6]dodeca-1(8),2(6),9,11-tetraen-12-yl)-3,6-dihydropyridine-1(2H)-carboxamide] | 2.75 | 21.6 | 6 | 85.5 | 11 | 85.5 | – |
| O=C(Nc1cccc(F)c1)N1CC=C(c2ncnc3[nH]c4c(c23)CCCC4)CC1 [Compound 113, N-(3-Fluorophenyl)-4-(6,7,8,9-tetrahydro-5H-pyrimido[4,5-b]indol-4-yl)-3,6-dihydropyridine-1(2H)-carboxamide] | 7.13 | 25.6 | 7 | – | 4 | 87 | – |
| O=C(Nc1cccc(Br)c1)N1CC=C(c2ncnc3[nH]c4c(c23)CCC4)CC1 [Compound 112, N-(3-Bromophenyl)-4-(5,6,7,8-tetrahydrocyclopenta[4,5]pyrrolo[2,3-d]pyrimidin-4-yl)-3,6-dihydropyridine-1(2H)-carboxamide] | – | – | – | – | – | – | inhibition at 1 µM [1, 13]: 8%; inhibition at 25 µM [2, 11]: 84.5%; inhibition at 25 µM [2, 12]: 84.5%; inhibition at 1 µM [3, 14]: 13%; Ki [4]: 7 nM; Ki [5]: 24 nM |
| O=C(Nc1cccc(Cl)c1)N1CC=C(c2ncnc3[nH]c4c(c23)CCC4)CC1 [Compound 111, N-(3-Chlorophenyl)-4-(5,6,7,8-tetrahydrocyclopenta[4,5]pyrrolo[2,3-d]pyrimidin-4-yl)-3,6-dihydropyridine-1(2H)-carboxamide] | 5.78 | 25.5 | – | 82.3 | – | 82.3 | inhibition at 1 µM [1, 13]: 10%; inhibition at 1 µM [3, 14]: 14% |
| O=C(Nc1cccc(Cl)c1)N1CC=C(c2ncnc3[nH]c4c(c23)CCCCC4)CC1 [Compound 117, N-(3-Chlorophenyl)-4-(5,6,7,8,9,10-hexahydrocyclohepta[4,5]pyrrolo[2,3-d]pyrimidin-4-yl)-3,6-dihydropyridine-1(2H)-carboxamide] | 22 | 61.3 | – | – | – | 69.2 | inhibition at 1 µM [1, 13]: 4%; inhibition at 1 µM [3, 14]: 7% |
| Cc1c[nH]c2ncnc(C3=CCN(C(=O)Nc4cccc(-c5cccc(OCCCNS(C)(=O)=O)c5)c4)CC3)c12 [Compound 175, N-[3-[3-[3-(methanesulfonamido)propoxy]phenyl]phenyl]-4-(5-methyl-7H-pyrrolo[2,3-d]pyrimidin-4-yl)-3,6-dihydro-2H-pyridine-1-carboxamide] | 12 | 9.66 | 43 | – | 36 | 98.1 | – |
| O=C(Nc1cccc(F)c1)N1CC=C(c2ncnc3[nH]c4c(c23)CCCCC4)CC1 [Compound 116, N-(3-Fluorophenyl)-4-(5,6,7,8,9,10-hexahydrocyclohepta[4,5]pyrrolo[2,3-d]pyrimidin-4-yl)-3,6-dihydropyridine-1(2H)-carboxamide] | 16.5 | 64 | -8 | 73.1 | -7 | 73.1 | – |
| Cc1c[nH]c2ncnc(C3=CC(C)N(C(=O)Nc4cccc(Br)c4)CC3)c12 (stereo not drawn) [Compound 49a-49b, N-(3-bromophenyl)-6-methyl-4-(5-methyl-7H-pyrrolo[2,3-d]pyrimidin-4-yl)-3,6-dihydropyridine-1(2H)-carboxamide (49a) and N-(3-bromophenyl)-2-methyl-4-(5-methyl-7H-pyrrolo[2,3-d]pyrimidin-4-yl)-3,6-dihydropyridine-1(2H)-carboxamide (49b)] | – | – | – | – | – | – | % inhibition (ROCK1) 1 uM [1]: 96%; % inhibition Cofilin phosphorylation HeLa cells treated 2 h with 25 uM of inhibitor [2]: 88.1%; % inhibition of cofilin phosphorylation in HeLa cells (treatment 2 h, at 25 μM) [2]: 88.1%; % inhibition (ROCK2) 1 uM [3]: 98% |
| O=C(Nc1cccc(-n2cccc2)c1)N1CC=C(c2ncnc3[nH]cc(C4CC4)c23)CC1 [Compound 81, 4-(5-Cyclopropyl-7H-pyrrolo[2,3-d]pyrimidin-4-yl)-N-(3-pyrrol-1-ylphenyl)-3,6-dihydropyridine-1(2H)-carboxamide] | – | – | 36 | – | 35 | – | inhibition at 25 µM [2, 11]: 90%; inhibition at 25 µM [2, 12]: 90% |
| O=C(Nc1cccc(C(F)(F)F)c1)N1CC=C(c2ncnc3[nH]c4c(c23)CCC4)CC1 [Compound 128, 4-(7,9,11-Triazatricyclo[6.4.0.02,6]dodeca-1(8),2(6),9,11-tetraen-12-yl)-N[3(trifluoromethyl)phenyl]-3,6-dihydropyridine-1(2H)-carboxamide] | 27.1 | 68.3 | – | – | – | – | % inhibition Cofilin phosphorylation HeLa cells treated 2 h with 25 uM of inhibitor ([2]; HeLa cells, 2 h, 25 uM): 83.9%; % inhibition of cofilin phosphorylation in HeLa cells (treatment 2 h, at 25 μM) [2, 6]: 83.9%; % inhibition (ROCK2) 1 uM ([3]; 1 uM): −14% |
| Cc1c[nH]c2ncnc(C3=CCN(C(=O)Nc4cccc(Oc5cccc(OCc6ccccc6)c5)c4)CC3)c12 [Compound 211, N-(3-(3-(benzyloxy)phenoxy)phenyl)-4-(5-methyl-7H-pyrrolo[2,3-d]pyrimidin-4-yl)-3,6-dihydropyridine-1(2H)-carboxamide] | 103 | 466 | 5 | – | 3 | – | – |
| CC1=CC(C)=[N+]2C1=Cc1ccc(CCC(=O)NCCCOc3cccc(-c4cccc(NC(=O)N5CC=C(c6ncnc7[nH]c8c(c67)CCC8)CC5)c4)c3)n1[B-]2(F)F [Compound 167, N-(3′-(3-(3-(5,5-Difluoro-7,9-dimethyl-5H-dipyrrolo[1,2-c:2′,1′-f][1,3,2]diazaborinin-3-yl)propanamido)propoxy)-[1,1′-biphenyl]-3-yl)-4-(5,6,7,8-tetrahydrocyclopenta[4,5]pyrrolo[2,3-d]pyrimidin-4-yl)-3,6-dihydropyridine-1(2H)-carboxamide] | – | – | – | – | – | – | % inhibition (ROCK1) 1 uM [1]: −4%; % inhibition (ROCK2) 1 uM [3]: 6%; Ki [4]: 112 nM; Ki [5]: 113 nM |
| COc1cccc(-c2cccc(NC(=O)N3CC=C(c4ncnc5[nH]c6c(c45)CCC6)CC3)c2)c1 [Compound 137, N-[3-(3-Methoxyphenyl)phenyl]-4-(7,9,11-triazatricyclo [6.4.0.02,6]dodeca-1(8),2(6),9,11-tetraen-12-yl)-3,6-dihydropyridine-1(2H)-carboxamide] | 4.97 | 8.59 | -1 | – | 4 | – | – |
